Assay: xn = mol fraction of the nth substance listed
Conditions: 101.33 kPa, Liquid

O=S1(=O)CCCC1 [sulfolane] + CCc1ccccc1
Conditions	mass density [kg/m3]	viscosity [mPa·s]
303.15 K, x2 = 0	1260.8	10.07
303.15 K, x2 = 0.1118	1209.27	6.224
303.15 K, x2 = 0.2205	1160.4	4.155
303.15 K, x2 = 0.3267	1114.66	2.942
303.15 K, x2 = 0.4301	1071.65	2.185
303.15 K, x2 = 0.5309	1031.19	–
303.15 K, x2 = 0.6293	993.33	1.324
303.15 K, x2 = 0.7254	957.17	1.057
303.15 K, x2 = 0.8194	923.09	0.861
303.15 K, x2 = 0.9106	890.45	0.716
313.15 K, x2 = 0	1251.9	7.808
313.15 K, x2 = 0.1118	1200.44	4.943
313.15 K, x2 = 0.2205	1151.53	3.385
313.15 K, x2 = 0.3267	1105.77	2.452
313.15 K, x2 = 0.4301	1062.77	1.835
313.15 K, x2 = 0.5309	1022.32	–
313.15 K, x2 = 0.6293	984.45	1.135
313.15 K, x2 = 0.7254	948.31	0.924
313.15 K, x2 = 0.8194	914.23	0.757
313.15 K, x2 = 0.9106	881.6	0.632
323.15 K, x2 = 0	1243.36	6.194
323.15 K, x2 = 0.1118	1191.64	4.007
323.15 K, x2 = 0.2205	1142.7	2.801
323.15 K, x2 = 0.3267	1096.92	2.048
323.15 K, x2 = 0.4301	1053.9	1.561
323.15 K, x2 = 0.5309	1013.47	1.136
323.15 K, x2 = 0.6293	975.58	0.993
323.15 K, x2 = 0.7254	939.43	0.813
323.15 K, x2 = 0.8194	905.36	0.66
323.15 K, x2 = 0.9106	872.72	0.564
333.15 K, x2 = 0	1234.62	5.009
333.15 K, x2 = 0.1118	1182.85	3.33
333.15 K, x2 = 0.2205	1133.86	2.35
333.15 K, x2 = 0.3267	1088.06	1.763
333.15 K, x2 = 0.4301	1045.02	1.347
333.15 K, x2 = 0.5309	1004.57	–
333.15 K, x2 = 0.6293	966.66	0.876
333.15 K, x2 = 0.7254	930.5	0.724
333.15 K, x2 = 0.8194	896.41	0.597
333.15 K, x2 = 0.9106	863.76	0.505
343.15 K, x2 = 0	1225.92	4.126
343.15 K, x2 = 0.1118	1173.93	2.796
343.15 K, x2 = 0.2205	1124.89	2.005
343.15 K, x2 = 0.3267	1079.06	1.541
343.15 K, x2 = 0.4301	1036.02	1.177
343.15 K, x2 = 0.5309	995.54	0.882
343.15 K, x2 = 0.6293	957.62	0.772
343.15 K, x2 = 0.7254	921.43	0.646
343.15 K, x2 = 0.8194	887.32	0.536
343.15 K, x2 = 0.9106	854.67	0.459
353.15 K, x2 = 0	1216.8	3.44
353.15 K, x2 = 0.1118	1165.14	2.371
353.15 K, x2 = 0.2205	1116.08	1.736
353.15 K, x2 = 0.3267	1070.18	1.319
353.15 K, x2 = 0.4301	1027.1	1.039
353.15 K, x2 = 0.5309	986.58	0.785
353.15 K, x2 = 0.6293	948.63	0.692
353.15 K, x2 = 0.7254	912.4	0.583
353.15 K, x2 = 0.8194	878.28	0.484
353.15 K, x2 = 0.9106	845.58	0.417
